Where “and” joins values, the source holds several entries; their conditions need not be identical. Equal values may be shown once.
Details: 423.15 K, Fluid (supercritical or subcritical phases); for viscosity: vibrating wire; for mass density: Buoyancy - hydrostatic balance with magnetic suspension - one sinker

CCC [propane]
Details | mass density | viscosity
1334.7 kPa | – | 0.01162 mPa·s
1335.7 kPa | 18.032 kg/m3 | 0.01162 mPa·s
1454.8 kPa | 19.782 kg/m3 and 19.781 kg/m3 | 0.01166 mPa·s
2110 kPa | 29.905 kg/m3 | 0.01189 mPa·s
2110.7 kPa | 29.916 kg/m3 | 0.01189 mPa·s
2704.3 kPa | 39.922 kg/m3 | 0.01217 mPa·s
2704.8 kPa | 39.931 kg/m3 | 0.01217 mPa·s
3242.6 kPa | 49.821 kg/m3 | 0.01248 mPa·s
3243.3 kPa | 49.834 kg/m3 | 0.01248 mPa·s
3747.9 kPa | 59.965 kg/m3 | 0.01283 mPa·s
3749.2 kPa | 59.991 kg/m3 | 0.01284 mPa·s
4207.4 kPa | 70.041 kg/m3 | 0.01323 mPa·s
4207.9 kPa | 70.052 kg/m3 | 0.01323 mPa·s
4616.7 kPa | 79.819 kg/m3 | 0.01365 mPa·s
4617.3 kPa | 79.834 kg/m3 | 0.01365 mPa·s
5007.5 kPa | 89.97 kg/m3 | 0.01412 mPa·s
5008.6 kPa | 90.002 kg/m3 | 0.01412 mPa·s
5358.6 kPa | 99.87 kg/m3 | 0.01462 mPa·s
5360.2 kPa | 99.917 kg/m3 | 0.01462 mPa·s
5989.5 kPa | 119.759 kg/m3 | 0.01573 mPa·s
5989.8 kPa | 119.769 kg/m3 | 0.01573 mPa·s
6545.1 kPa | 139.717 kg/m3 | 0.017 mPa·s
6545.3 kPa | 139.725 kg/m3 | 0.017 mPa·s
7033 kPa | 159.017 kg/m3 | 0.01838 mPa·s
7033.7 kPa | 159.048 kg/m3 | 0.01838 mPa·s
7520.1 kPa | 179.397 kg/m3 | 0.02002 mPa·s
7520.8 kPa | 179.425 kg/m3 | 0.02002 mPa·s
7992.2 kPa | 199.277 kg/m3 | 0.02182 mPa·s
7992.6 kPa | 199.294 kg/m3 | 0.02182 mPa·s
8516 kPa | 220.253 kg/m3 | 0.02395 mPa·s
8516.4 kPa | 220.267 kg/m3 | 0.02394 mPa·s
9079.6 kPa | 240.483 kg/m3 | 0.02624 mPa·s
9079.9 kPa | 240.492 kg/m3 | 0.02623 mPa·s
9738.4 kPa | 260.609 kg/m3 | 0.02877 mPa·s
9738.5 kPa | 260.612 kg/m3 | 0.02878 mPa·s
10543 kPa | 280.635 kg/m3 | 0.03161 mPa·s
10544 kPa | 280.644 kg/m3 | 0.0316 mPa·s
11566 kPa | 300.645 kg/m3 and 300.654 kg/m3 | 0.03477 mPa·s
12882 kPa | 320.474 kg/m3 | 0.03827 mPa·s
12884 kPa | 320.488 kg/m3 | 0.03828 mPa·s
14693 kPa | 341.059 kg/m3 | 0.04235 mPa·s and 0.04234 mPa·s
17064 kPa | 361.23 kg/m3 | 0.04694 mPa·s
17065 kPa | 361.234 kg/m3 | 0.04691 mPa·s
20192 kPa | 381.227 kg/m3 | 0.05209 mPa·s
20193 kPa | 381.229 kg/m3 | 0.05209 mPa·s
24333 kPa | 401.231 kg/m3 | 0.05798 mPa·s
24334 kPa | 401.235 kg/m3 | 0.05795 mPa·s
29700 kPa | 421.002 kg/m3 | 0.06464 mPa·s
29703 kPa | 421.011 kg/m3 | 0.06466 mPa·s

— the NIST ThermoML archive (doi:10.1021/je101178u)
